The source of these data is US10328083B1, “Compositions and methods for treating stroke” (University of South Florida, priority 2012, dated 2019).

The structures appear in SMILES notation. Where a name gives a salt, the structure may show the parent alone.

Common to all, as to type: in vivo
The subject of assay [1] is permanent middle cerebral artery occlusion (MCAO) in rats. The assay can be described thus: Mortality rate prior to euthanization after permanent MCAO. As to conditions: for FD: jugular catheter, up to 48 h post MCAO. The procedure:
(§1) Permanent middle cerebral artery occlusion (MCAO) was induced in rats. Post MCAO, conivaptan was administered to the rat via jugular catheter at varying times and dosages. The conivaptan used was VAPRISOL® which is a conivaptan hydrochloride premixed in 5% dextrose at 20 mg/100 ml in 100 ml IV bag. The conivaptan was purchased from Astellas Pharma USA, Inc. (lot#0789065) and sub-aliquoted into sterile foil-covered vials.
(§2) For rats receiving the 6-hour treatment, 0.5 ml (0.35 mg/kg) bolus conivaptan was administered six hours post MCAO, followed by administrations of 0.1 ml (0.07 mg/kg) conivaptan at nine hours post MCAO. At 20, 24, 28, and 32 hours post MCAO, 0.1 ml (0.07 mg/kg) conivaptan was administered. A saline control (1.4 ml of 0.9% saline) was then injected at 44 hours post MCAO. At 48 hours post MCAO, the rats were euthanized.
(§3) For rats receiving the 24-hour treatment, 0.5 ml (0.35 mg/kg) bolus conivaptan was administered 24 hours post MCAO, followed by administrations of 0.1 ml (0.07 mg/kg) conivaptan at 20, 24, 28 and 32 hours post MCAO. Saline controls (1.4 ml of 0.9% saline) were injected at 6, 9, and 44 hours post MCAO. At 48 hours post MCAO, the rats were euthanized.
The mortality rate prior to euthanization is provided below in Table 1: […]

The test system is the same in assay [2]. The assay is described as follows: Fluoro-Jade staining of neural biopsies from the site of the infarct after permanent MCAO. On the procedure:
as §1, §2, §3
Fluoro-Jade staining of neural biopsies obtained from the site of the infarct was also performed and the results are shown in Table 2.

Assay [3] has the same test system. The assay can be described thus: Results of treatment post MCAO (Table 3; CD11b staining of infarct and surrounding areas per FIGS. 2-4). As to conditions: treatment started 6 h post MCAO; rats euthanized at 48 h post MCAO. On the procedure:
FIG. 1 is a table showing the conivaptan treatment regimens. The five treatment groups were normal saline (control)[NS], 5% saline infusion+5% saline maintenance [5% IM], conivaptan only [C], conivaptan+5% saline maintenance [C5% M], and conivaptan+5% saline infusion+5% saline maintenance [C5% IM]. (Euth.=euthanized).
FIG. 4 is a graph showing the average area fraction of CD11b staining at 48 hours post MCAO following the various treatments.
Permanent middle cerebral artery occlusion (MCAO) was induced in rats. Post MCAO, conivaptan, hyper saline or normal saline was administered to the rats via jugular catheter at varying times and dosages. The conivaptan used was Vaprisol® which is a conivaptan hydrochloride premixed in 5% dextrose at 20 mg/100 ml in 100 ml IV bag. The conivaptan was purchased from Astellas Pharma USA, Inc. (lot#0789065) and sub-aliquoted into sterile foil-covered vials. Hyper saline solutions were 5% NaCl. Saline solutions were 0.9% NaCl.
For rats receiving the six-hour treatment, 0.5 ml (0.35 mg/kg) bolus conivaptan was administered 6 hours post MCAO, followed by administrations of 0.1 ml (0.07 mg/kg) conivaptan at 9 hours post MCAO. At 20, 24, 28, and 32 hours post MCAO, 0.1 ml (0.07 mg/kg) conivaptan was administered. A saline control (1.4 ml of 0.9% saline) was then injected at 44 hours post MCAO. At 48 hours post MCAO, the rats were euthanized. […]

For the molecule `Cc1nc2c([nH]1)-c1ccccc1N(C(=O)c1ccc(NC(=O)c3ccccc3-c3ccccc3)cc1)CC2` [conivaptan, conivaptan hydrochloride], the FD in assay [1] (6-hour treatment: 0.35 mg/kg bolus 6 h post MCAO, then 0.07 mg/kg at 9, 20, 24, 28, 32 h) amounted to 2; in assay [1] (24-hour treatment: 0.35 mg/kg bolus 24 h post MCAO, then 0.07 mg/kg doses) it was 4. The “% Survival” value in assay [1] (6-hour treatment, prior to euthanization at 48 h post MCAO) is reported as 78%; in assay [1] (24-hour treatment, prior to euthanization at 48 h post MCAO), 56%. In addition, the “% Survival (total)” value in assay [1] (6-hour treatment, value in brackets (total), prior to euthanization at 48 h post MCAO) turned out to be 82%. The “Fluoro-Jade staining Avg” value worked out at 38.331 g in assay [2] (6-hour treatment, n = 7, p = .06 compared to controls) and 55.388 g in assay [2] (24-hour treatment, n = 5, p = 0.3 compared to controls). The “decrease in Fluoro-Jade staining compared to controls” value in assay [2] (6-hour treatment, p = .06) is given as “*p = .06 compared to controls 37% decrease”. Besides, the “Avg (Table 3, results of treatment)” value in assay [3] is listed as 0.486.
